Consider 39 compounds from patent US7112586B2, “Substituted diamine derivatives useful as motilin antagonists” (Ortho-McNeil Pharmaceutical, Inc., priority 2000, dated 2006).

Experiment [1] relates to motilin induced contraction. Put plainly: Rabbit tissue bath procedure: inhibition of motilin induced contraction of duodenum segments. Further details: species or system New Zealand White rabbit. To be noted: 3 nM porcine motilin induced contraction, read-out: Tissues IC50. The protocol:
Rabbit Tissue Bath Procedure
One New Zealand White rabbit (Covance) of either sex was euthanized with an IV injection of Sleepaway. The duodenum was quickly excised, the lumen rinsed with saline to clean, and the tissue placed in cold, aerated (95% O2–5% CO2) Tyrodes buffer (NaCl 136.9 mM, KCl 2.7 mM, CaCl2 1.8 mM, MgCl2 1.04 mM, NaH2PO4 0.42 mM, NaHCO3 11.9 mM, Glucose 5.55 mM, pH 7.4). The duodenum, being kept moist at all times, was cleaned of any excess mesenteric tissue, and then cut into 3 cm segments starting at the proximal end. Sixteen tissue segments were usually prepared from each duodenum. These segments were tied on both ends with 3-0 silk suture (Ethicon). One end of the tissue was attached to an S-hook on a custom made glass support rod (Crown Glass Co., Somerville) and the rod plus tissue were placed in a 15 ml isolated tissue bath (Radnoti). The other end of the glass rod was attached to a Grass Force Displacement Transducer FT03. The tissue was maintained in room temperature Tyrodes buffer pH 7.4 and continually gassed with 95% O2— 5% CO2. The tissues were adjusted to 1.0 g resting tension and maintained at that tension throughout the equilibration period. An Ml2 Tissue Bath Computer was used to record and analyze data.
The tissues were washed twice during a 30 minute equilibration period and readjusted to 1 g resting tension as necessary. After equilibration the tissues were challenged with 3 μM Carbachol (Carbamoylcholine Chloride-Sigma). After maximal contraction was attained, the tissues were washed 3 times with Tyrodes. The tissues were allowed a 20 minute resting/equilibration period, during which time they were washed once and readjusted to 1 g resting tension. The tissues were challenged a second time with 3 μM Carbachol, and this contraction was considered as maximal, or 100% contraction. The tissues were washed 3 times, equilibrated for 10 minutes, washed again and readjusted to 1 g resting tension. Vehicle or test compound in 30% DMSO-50 mM HEPES was added directly to the bath and the tissues were incubated for 20 minutes. Test compounds and vehicle were run in duplicate.
The percent inhibition by test compound of the motilin induced contraction was calculated by first determining the ratio of the vehicle contractions with Motilin compared to the Carbachol contractions. This Tissue Adjustment Factor (TAF) was used to determine the value for the potential uninhibited contraction with Motilin for each tissue. The percent inhibition was then determined by dividing the actual Motilin contraction in treated tissues by the potential uninhibited contraction and subtracting this number from 1. IC50 values were determined by graphing results with Kaleidograph graphing program.

For a further experiment, the target named is T1, Motilin Receptor (Oryctolagus cuniculus, UniProt G1T803).
T1 construct: The muscle tissue was homogenized in 10 volumes of 50 mM Tris-Cl; from tissue; host or cells: rabbit colon smooth muscle, crude membrane homogenate
Put plainly: Motilin receptor binding, rabbit colon membranes, 125I porcine motilin. Further details: Rabbit Colon % Inh / inhibition / % Inh (Rabbit colon): dose or concentration left out as unconfirmed. As to conditions: rabbit colon membranes; for inhibition: read-out: Rabbit Colon % Inh; for IC50: read-out: Rabbit Colon IC50.

T1 sequence (G1T803 1-400): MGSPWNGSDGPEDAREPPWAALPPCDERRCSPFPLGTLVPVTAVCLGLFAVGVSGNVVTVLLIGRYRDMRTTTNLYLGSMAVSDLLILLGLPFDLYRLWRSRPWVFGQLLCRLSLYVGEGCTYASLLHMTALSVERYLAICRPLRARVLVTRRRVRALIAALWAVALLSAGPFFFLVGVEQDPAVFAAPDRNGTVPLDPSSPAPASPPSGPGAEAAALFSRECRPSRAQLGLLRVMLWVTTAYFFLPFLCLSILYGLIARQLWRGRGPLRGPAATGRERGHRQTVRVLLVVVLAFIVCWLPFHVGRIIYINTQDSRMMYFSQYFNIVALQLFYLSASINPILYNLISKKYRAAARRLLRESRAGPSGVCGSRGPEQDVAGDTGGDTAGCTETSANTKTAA

In general, IC50 refers to the point on the concentration scale where inhibition reaches its midpoint. With `O=C(Nc1ccccc1)N(CC1CCCC(N(Cc2cccc([N+](=O)[O-])c2)C(=O)C(Cl)(Cl)Cl)C1)c1cccc(OCCN2CCOCC2)c1` (stereo not shown) [compound 65], the IC50 in experiment [1] came out at 27 nM; at Motilin Receptor, 35 nM. In addition, the inhibition at Motilin Receptor is 80%.
As to `O=C(c1ccc(F)cc1)N(CC1CCCC(N(Cc2ccccn2)C(=O)C(Cl)(Cl)Cl)C1)c1cccc(OCCN2CCOCC2)c1` (stereo not shown) [compound 90], the IC50 in experiment [1] is greater than 300 nM. Further, on Motilin Receptor, the inhibition worked out at 95% and the IC50 is 490 nM.
The matching figures for `O=C(c1ccc(F)cc1)N(CC1CCCC(N(Cc2cccc([N+](=O)[O-])c2)C(=O)C(Cl)(Cl)Cl)C1)c1cccc(OCCN2CCOCC2)c1` (stereo not shown) [compound 93]: 20.5 nM, 100% and 90 nM.
For `O=C(c1ccc(F)cc1)N(CC1CCCC(N(Cc2cccc(C(F)(F)F)c2)C(=O)C(Cl)(Cl)Cl)C1)c1cccc(OCCN2CCOCC2)c1` (stereo not shown) [compound 96] the same measures were greater than 30 nM, 71% and 1680 nM.
For `CC(C)(C)C(=O)N(Cc1cccc(Cl)c1)C1CCCC(CN(C(=O)c2ccc(F)cc2)c2cccc(OCCN3CCOCC3)c2)C1` (stereo not shown) [compound 105] the same measures were 30 nM, 80% and 390 nM.
Regarding `O=C(CCCC(=O)N1CCc2ccccc2C1c1ccccc1)N(Cc1ccc(F)cc1)c1cccc(OCCN2CCOCC2)c1` (stereo not shown) [compound 153], the concentration for half-maximal inhibition (IC50) in experiment [1] is 30 nM; at Motilin Receptor it was 81 nM. Moreover, at Motilin Receptor, the inhibition stood at 89%.
The matching figures for `O=C(CCCC(=O)N(Cc1ccc(F)cc1)c1cccc(OCCN2CCOCC2)c1)N(CCc1ccccc1)Cc1cccc(Cl)c1` [compound 162]: 21 nM, 178 nM and 85%.
For `O=C(CCC(=O)N(Cc1ccc(F)cc1)c1cccc(OCCN2CCOCC2)c1)N(CCc1ccccc1)Cc1cccc(Cl)c1` [compound 163] the same measures were 19 nM, 174 nM and 85%.
Regarding `CC(C)(C)C(=O)N(Cc1ccccc1)[C@@H]1CCC[C@H](CN(C(=O)c2ccc(F)cc2)c2cccc(OCCN3CCCC3)c2)C1` [compound 214], the IC50 in experiment [1] turned out to be 24 nM.
`Cc1c(OCCN2CCCC2)cccc1N(Cc1ccc(F)cc1)C(=O)CCCC(=O)N(CCc1ccccc1)Cc1cccc(C(=O)O)c1` [compound 215]: at Motilin Receptor, the inhibition amounted to 100% and the half-maximal inhibitory concentration (IC50) was found to be 84 nM.
As to `O=C(Nc1ccccc1)N(CC1CCCC(N(Cc2cccc(Cl)c2)C(=O)C(Cl)(Cl)Cl)C1)c1cccc(OCCN2CCCC2)c1` (stereo not shown) [compound 223], at Motilin Receptor, the inhibition came to 100% and the IC50 worked out at 41 nM.
The matching figures for `O=C(Nc1ccccc1)N(CC1CCCC(N(Cc2ccccc2)C(=O)C(Cl)(Cl)Cl)C1)c1cccc(OCCN2CCCC2)c1` (stereo not shown) [compound 224]: 98% and 39 nM.
For `CC(C)(C)C(=O)N(Cc1ccccc1)[C@@H]1CCC[C@H](CN(C(=O)Nc2ccccc2)c2cccc(OCCN3CCCC3)c2)C1` [compound 225] the same measures were 93% and 21 nM.
For `CCN(CC)CCOc1cccc(N(CC2CCCC(N(Cc3cccc(Cl)c3)C(=O)C(C)(C)C)C2)C(=O)c2ccc(F)cc2)c1` (stereo not shown) [compound 233] the same measures were 89% and 170 nM.
Regarding `Cc1c(OCCN2CCOCC2)cccc1N(Cc1ccc(F)cc1)C(=O)CCCC(=O)N(CCc1ccccc1)Cc1ccccc1` [compound 234], at Motilin Receptor, the inhibition is 86% and the IC50 was determined as 218 nM.
For the compound `CC(C)(C)C(=O)N(Cc1cccc(Cl)c1)C1CCCC(CN(C(=O)c2ccc(F)cc2)c2cccc(OCCN3CCCCC3)c2)C1` (stereo not shown) [compound 237], at Motilin Receptor, the inhibition came to 96% and the IC50 is 168 nM.
As to `O=C(c1ccc(F)cc1)N(CC1CCCC(N(Cc2cccc(Cl)c2)C(=O)C(Cl)(Cl)Cl)C1)c1cccc(OCCN2CCCCC2)c1` (stereo not shown) [compound 238], at Motilin Receptor, the inhibition is 98% and the IC50 amounted to 97 nM.
For `COc1cccc(CC(=O)N(Cc2cccc(Cl)c2)C2CCCC(CN(C(=O)c3ccc(F)cc3)c3cccc(OCCN4CCOCC4)c3)C2)c1` (stereo not shown) [compound 241], the “Rabbit Colon % Inh” value on Motilin Receptor came to 14%.
On the same count and under the same terms, with `O=C(c1ccc(F)cc1)N(CC1CCCC(N(Cc2cccc(Cl)c2)C(=O)CCC2CCCC2)C1)c1cccc(OCCN2CCOCC2)c1` (stereo not shown) [compound 242] the figure was 36%; with `COc1ccc(CC(=O)N(Cc2cccc(Cl)c2)C2CCCC(CN(C(=O)c3ccc(F)cc3)c3cccc(OCCN4CCOCC4)c3)C2)cc1` (stereo not shown) [compound 243], 35%.
With `O=C(c1ccc(F)cc1)N(CC1CCCC(N(Cc2cccc(Cl)c2)C(=O)Cc2ccccc2)C1)c1cccc(OCCN2CCOCC2)c1` (stereo not shown) [compound 244], the “Rabbit Colon % Inh” value on Motilin Receptor is reported as 42%.
The same measure, in the same setting: then `COc1ccc(CC(=O)N(Cc2cccc(Cl)c2)C2CCCC(CN(C(=O)c3ccc(F)cc3)c3cccc(OCCN4CCOCC4)c3)C2)cc1OC` (stereo not shown) [compound 245], with 40%; and `CC(C)(C)CC(=O)N(Cc1cccc(Cl)c1)C1CCCC(CN(C(=O)c2ccc(F)cc2)c2cccc(OCCN3CCOCC3)c2)C1` (stereo not shown) [compound 246], with 73%.
Consider `O=C(c1ccc(F)cc1)N(CC1CCCC(N(Cc2cccc(Cl)c2)C(=O)Cc2cccs2)C1)c1cccc(OCCN2CCOCC2)c1` (stereo not shown) [compound 248], for which, at Motilin Receptor, the inhibition amounted to 86% and the IC50 came to 760 nM.
Turning to `O=C(c1ccc(F)cc1)N(CC1CCCC(N(Cc2cccc(Cl)c2)C(=O)Cc2ccc(F)cc2)C1)c1cccc(OCCN2CCOCC2)c1` (stereo not shown) [compound 249], the “Rabbit Colon % Inh” value on Motilin Receptor is 22%.
Same read-out and setting: then `CC(C)(C)c1ccc2c(c1)C(=O)N(C1CCCC(CN(C(=O)c3ccc(F)cc3)c3cccc(OCCN4CCOCC4)c3)C1)C2=O` (stereo not shown) [compound 250], with 0%; and `O=C(c1ccc(F)cc1)N(CC1CCCC(N2C(=O)c3ccc(F)cc3C2=O)C1)c1cccc(OCCN2CCOCC2)c1` (stereo not shown) [compound 251], with 0%.
Same read-out and setting: with `O=C(c1ccc(F)cc1)N(CC1CCCC(N2C(=O)c3ccc4ccccc4c3C2=O)C1)c1cccc(OCCN2CCOCC2)c1` (stereo not shown) [compound 252] the figure was 15%; with `Cc1ccc2c(c1)C(=O)N(C1CCCC(CN(C(=O)c3ccc(F)cc3)c3cccc(OCCN4CCOCC4)c3)C1)C2=O` (stereo not shown) [compound 253], 30%; with `O=C(c1ccc(F)cc1)N(CC1CCCC(N2C(=O)CC3(CCCC3)CC2=O)C1)c1cccc(OCCN2CCOCC2)c1` (stereo not shown) [compound 254], 25%.
The same measure, in the same setting: then `O=C(c1ccc(F)cc1)N(CC1CCCC(N2C(=O)c3cc(Cl)c(Cl)cc3C2=O)C1)c1cccc(OCCN2CCOCC2)c1` (stereo not shown) [compound 255], with 22%; and `Cc1ccc2c(c1)C(=O)N(C1CCCC(CN(C(=O)c3ccc(F)cc3)c3cccc(OCCN4CCOCC4)c3)C1)C2=O` (stereo not shown) [compound 256], with 27%; and `O=C(c1ccc(F)cc1)N(CC1CCCC(N2C(=O)c3ccccc3C2=O)C1)c1cccc(OCCN2CCOCC2)c1` (stereo not shown) [compound 257], with 0%.
Turning to `CC1(C)CC(=O)N(C2CCCC(CN(C(=O)c3ccc(F)cc3)c3cccc(OCCN4CCOCC4)c3)C2)C(=O)C1` (stereo not shown) [compound 258], the “Rabbit Colon % Inh” value on Motilin Receptor amounted to 34%.
Still for that read-out and setting: with `O=C(c1ccc(F)cc1)N(CC1CCCC(N2C(=O)c3ccc(Br)cc3C2=O)C1)c1cccc(OCCN2CCOCC2)c1` (stereo not shown) [compound 259] the figure was 17%.
On the same count and under the same terms, with `CC(=O)Oc1ccc2c(c1)C(=O)N(C1CCCC(CN(C(=O)c3ccc(F)cc3)c3cccc(OCCN4CCOCC4)c3)C1)C2=O` (stereo not shown) [compound 260] the figure was 30%; with `O=C(c1ccc(F)cc1)N(CC1CCCC(N2C(=O)c3ccc4ccc(F)cc4c3C2=O)C1)c1cccc(OCCN2CCOCC2)c1` (stereo not shown) [compound 261], 0%.
`O=C(c1ccc(F)cc1)N(CC1CCCC(N2C(=O)C3CC3C2=O)C1)c1cccc(OCCN2CCOCC2)c1` (stereo not shown) [compound 262]: at Motilin Receptor, the “Rabbit Colon % Inh” value is reported as 18%.
The same measure, in the same setting: then `O=C(c1ccc(F)cc1)N(CC1CCCC(N2C(=O)c3c(Cl)ccc(Cl)c3C2=O)C1)c1cccc(OCCN2CCOCC2)c1` (stereo not shown) [compound 263], with 11%.
